Patent US11155546B2, “4,6,7-trisubstituted 1,2-dihydropyrrolo[3,4-c]pyridin/pyrimidin-3-one derivatives and uses thereof” (SHANGHAI HAIYAN PHARMACEUTICAL TECHNOLOGY CO., LTD., priority 2017, dated 2021)
pIC50: −log10 of the molar value.

Key:
[1] = target: BTK WT (Homo sapiens (Human), UniProt Q06187); assay: Lantha screening kinase reaction, inhibition of BTK WT; type: biochemical
Experimental: The compound was predissolved in 100% DMSO. 10 mM drug stock solution was obtained by dissolution at room temperature and then serially diluted with 8 vol % DMSO solution to a final concentration of 10-0.005 μM. […] Among the wells, the kinase in the blank well was replaced with a reaction buffer and the kinase well (Enzyme) was not added with any drug. After shaking at 25° C. for 60 minutes in the dark, 10 μl of Detection Solution (mixture of Invitrogen PV3528 and EDTA, which was diluted with TR-FRET dilution buffer, the working concentration of EDTA was 5 mM, the working concentration of Lanthascreening Tb PY20 antibody was 0.2 nM) was added and shaken at room temperature for 30 minutes. The plates were read on a VictorX5 fluorescent plate reader (PerkinElmer) and the light absorption at an excitation wavelength of 340 nm and emission wavelengths of 500 nm and 520 nm was measured.
The calculation method for the inhibition ratio (referring to the specification of Invitrogen, PV3363) was as follows: Emission ratio (ER):Coumarin Emission (520 nm)/Fluorescein Emission (500 nm) 1. The inhibition ratio (IR):(ERkinase−ERtest compound)/(ERkinase−ERblank)×100%. 2.
The half-inhibitory concentration IC50 was calculated by fitting with XLFIT5.0 software (IDBS, UK).

[2] = in vivo; conditions: mouse, in vivo, po, 30 mg/kg
Experimental: Test Animals: ICR mice, weight 28-30 g, male, totally 12, purchased from SLAC Laboratory Animal Co., Ltd. Mice were fasting one night before administration and freely fed 4 hours after administration.
Administration and Blood collection: 6 mice were administered intragastrically (PO) in a administered dosage of 30 mg/kg and a administered volume of 10 mL/kg. One administration route was subjected with 6 mice, blood samples of three mice were collected at one time point, and blood samples of another three mice were collected at alternate time point alternately. Blood was collected at 8 time points of 0.083, 0.25, 0.5, 1, 2, 4, 8, 24 h after administration respectively.
Animals were manually controlled at the time of collection and approximately 80 μL of blood was collected from the mice fundus venous plexus into a tube containing K2EDTA. The collected blood sample was put on wet ice, centrifuged within 15 min (8000 rpm, 4 min at 4° C.), and then the plasma sample was taken and stored at minus 20° C. till analysis. The compounds were prepared on the day of the experiment.
Solvent excipient information: DMSO (brand: Sigma, batch number: SHBD2446V); 2-hydroxypropyl-3-cyclodextrin (brand: Sigma, batch number: BCBN8227V), acetic acid (brand: Sinopharm Group, batch number: 20150616), sodium acetate (Brand: GENERAL-REAGENT, batch number: P1246037).
Preparation of a 3 mg/mL PO dosing solution: the solvent was a solution of 5% DMSO and 95% PH4.5 (sodium acetate-acetate) in 20% of 2-hydroxypropyl-β-cyclodextrin.
Analytical method: Plasma samples were analyzed by liquid chromatography-tandem mass spectrometry (Instrument type: Triple Quad™ 4000).
Preparation of the standard curve: preparing a standard curve of the test compound 1n the plasma matrix of ICR mice with a linear range of 1.00-3000 ng/mL, and preparing control samples at low, medium and high concentrations of 3 ng/mL, 500 ng/mL, and 2400 ng/mL respectively.
Treatment of biological samples: the frozen plasma samples were thawed on ice, and after the samples were thawed, they were vortexed on a vortex for 5 min. 20 μL of plasma sample was added to a 96-well plate, and 200 μL of acetonitrile (brand: Merck, Lot: 1854029643) containing an internal standard dexamethasone (Brand: NIFDC, Lot: 1N2V-DPGY, 2000 ng/mL) was added to precipitate protein, which were vortexed for 5 min, and then centrifuged at 3700 rpm and 4° C. for 15 min. The supernatant was extracted and twice centrifuged under the same conditions, and finally 2 μL of the supernatant solution was analyzed by LC-MS/MS.

[3] = target: wild-type EGFR kinase (Homo sapiens (Human), UniProt P00533); assay: Wild type EGFR kinase inhibition test (z-lyte); type: biochemical; conditions: 10 μM ATP; read-out: EGFR WT IC50
Source text: All the following reagents used in z-lyte test are commercially available from Invitrogen.
The calculation method for the inhibition ratio (referring to the specification of Invitrogen, PV3363) was as follows: ER=Coumarin Emission(450 nm)/Fluorescein Emission(520 nm) 1. Phosphorylation ratio=(1−((ER×C3520nm−C3450nm)/((C1450nm−C3450nm)+ER×(C3520nm−C1520nm))))×100% 2. Inhibition ratio (IR)=(1−phosphorylation ratio of the test compound)/(phosphorylation ratio of C2))×100% 3.
The half-inhibitory concentration IC50 was calculated by fitting with XLFIT 5.0 software (IDBS, UK).

[4] = target: βBTK Y223 (Homo sapiens (Human), UniProt Q06187); assay: Intracellular βBTK Y223 phosphorylation HTRF in Ramos cells; type: cell-based
Experimental: The compound was predissolved in 100% DMSO. […] 20 μl of lysate (4× lysate: blocked mother liquor is 25:1) was added to each well and incubated for 30 minutes at 25° C. on a shaker. It was shaken on an oscillator at 800 rpm for 1 minute. […] The half-inhibitory concentration IC50 was calculated by fitting with XLFIT 5.0 software (IDBS, UK).

Chain of βBTK Y223 (Q06187 whole entry): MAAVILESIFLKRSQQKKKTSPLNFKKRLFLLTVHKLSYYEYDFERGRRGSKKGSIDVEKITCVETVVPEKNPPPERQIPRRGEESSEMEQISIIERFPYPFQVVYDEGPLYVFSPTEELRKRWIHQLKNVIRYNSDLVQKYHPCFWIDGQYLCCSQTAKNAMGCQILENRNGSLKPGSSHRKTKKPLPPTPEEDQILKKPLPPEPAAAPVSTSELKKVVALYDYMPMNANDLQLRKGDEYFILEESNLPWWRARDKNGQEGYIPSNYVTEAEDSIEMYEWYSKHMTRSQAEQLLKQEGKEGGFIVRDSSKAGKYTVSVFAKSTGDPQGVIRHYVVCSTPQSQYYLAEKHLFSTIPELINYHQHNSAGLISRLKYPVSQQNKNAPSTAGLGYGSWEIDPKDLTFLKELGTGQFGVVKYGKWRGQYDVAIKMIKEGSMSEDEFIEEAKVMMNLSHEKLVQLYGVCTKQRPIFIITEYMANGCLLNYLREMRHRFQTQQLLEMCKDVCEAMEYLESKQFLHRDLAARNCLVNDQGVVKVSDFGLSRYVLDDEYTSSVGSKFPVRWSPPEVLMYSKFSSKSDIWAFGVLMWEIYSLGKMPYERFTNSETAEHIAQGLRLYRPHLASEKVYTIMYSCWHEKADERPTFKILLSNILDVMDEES
Chain of BTK WT (Q06187 whole entry): as above
Chain of wild-type EGFR kinase (P00533 25-1210): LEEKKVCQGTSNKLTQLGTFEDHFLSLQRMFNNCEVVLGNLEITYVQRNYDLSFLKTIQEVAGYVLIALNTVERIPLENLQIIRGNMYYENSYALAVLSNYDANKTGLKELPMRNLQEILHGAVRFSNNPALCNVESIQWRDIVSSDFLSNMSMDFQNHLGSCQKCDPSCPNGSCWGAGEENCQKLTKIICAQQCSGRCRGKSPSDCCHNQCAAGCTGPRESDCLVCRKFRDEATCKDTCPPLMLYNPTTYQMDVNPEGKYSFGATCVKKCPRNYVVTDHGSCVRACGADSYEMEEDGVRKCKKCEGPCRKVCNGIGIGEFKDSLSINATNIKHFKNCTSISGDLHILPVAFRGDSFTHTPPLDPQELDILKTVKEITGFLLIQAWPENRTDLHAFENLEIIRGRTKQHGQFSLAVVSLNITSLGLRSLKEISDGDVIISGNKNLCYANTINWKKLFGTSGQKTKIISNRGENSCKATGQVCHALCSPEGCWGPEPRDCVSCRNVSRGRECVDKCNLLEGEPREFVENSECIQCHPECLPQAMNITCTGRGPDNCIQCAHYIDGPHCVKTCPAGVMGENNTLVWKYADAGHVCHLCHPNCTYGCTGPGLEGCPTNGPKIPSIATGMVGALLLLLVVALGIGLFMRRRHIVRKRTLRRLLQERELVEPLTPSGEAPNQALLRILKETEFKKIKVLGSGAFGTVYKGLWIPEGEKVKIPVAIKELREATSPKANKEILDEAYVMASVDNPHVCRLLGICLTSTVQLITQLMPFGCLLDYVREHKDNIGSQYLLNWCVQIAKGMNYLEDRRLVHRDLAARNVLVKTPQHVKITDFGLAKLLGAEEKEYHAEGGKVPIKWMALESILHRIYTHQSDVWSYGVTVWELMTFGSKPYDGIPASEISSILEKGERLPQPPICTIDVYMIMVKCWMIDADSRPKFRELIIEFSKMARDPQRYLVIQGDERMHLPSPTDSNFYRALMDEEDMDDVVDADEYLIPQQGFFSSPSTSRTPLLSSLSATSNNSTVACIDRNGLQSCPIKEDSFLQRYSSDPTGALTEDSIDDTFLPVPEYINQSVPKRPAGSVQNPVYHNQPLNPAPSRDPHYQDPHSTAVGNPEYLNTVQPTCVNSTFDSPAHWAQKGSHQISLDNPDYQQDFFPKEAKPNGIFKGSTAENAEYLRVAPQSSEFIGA

Structure (SMILES)	pIC50 [1]	pIC50 [3]	pIC50 [4]	further results
C=CC(=O)N1CCCC(Nc2nc(Nc3cc(C)ns3)c3c(c2F)CNC3=O)C1 (stereo not shown) [Compound G-23]	8.30	5.75		Area under curve AUC [2]: 645 ng·h/mL; Maximum blood concentration Cmax [2]: 878.7 ng/mL; Oral relative bioavailability F (%) [2]: 14%; Tmax [2]: 4.8 min; half-time T1/2 [2]: 195 min
C=CC(=O)N1CCCC(Nc2nc(Nc3ccc(N4CCN(C)CC4)cn3)c3c(c2F)CNC3=O)C1 (stereo not shown) [Compound G-12]	7.68	5.41	7.10	
C=CC(=O)N1CCCC(N(C)c2nc(-c3cnn(C(F)F)c3)c3c(c2F)CNC3=O)C1 (stereo not shown) [Compound G-63, 6-((1-acryloylpiperidin-3-yl)(methyl)amino)-4-(1-(difluoromethyl)-1H-pyrazole-4-yl)-7-fluoro-1H-pyrrolo[3,4-c]pyridine-3(2H)-one]	7.60	< 5.00	7.30	
C=CC(=O)N1CCCC(Nc2nc(-c3cnn(C4CC4)c3)c3c(c2F)CNC3=O)C1 (stereo not shown) [Compound G-45]	7.16		6.96	
C=CC(=O)NC1CN(c2nc(Nc3ccc(N4CCOCC4)cc3)c3c(c2F)CNC3=O)CC1F (stereo not shown) [Compound G-86, N-(4-fluoro-1-(7-fluoro-4-(4-morpholin)-3-oxo-2,3-dihydro-1H-pyrrolo[3,4-c]pyridin-6-yl)pyrrolidinepyridine-3-yl)acrylamide]	9.00	5.93	8.30	
C=CC(=O)N1CCCC(Nc2nc(-c3cnn(C)c3)c3c(c2F)CNC3=O)C1C (stereo not shown) [Compound G-51]	7.21	5.17	7.10	
C=CC(=O)N1CCCC(Nc2nc(Nc3cnn(C)n3)c3c(c2F)CNC3=O)C1 (stereo not shown) [Compound G-35]			7.46	
C=CC(=O)N1CCCC(Nc2nc(Nc3ccc(OCCOC)cc3)c3c(c2F)CNC3=O)CC1 (stereo not shown) [Compound G-4]	8.15	5.62	7.64	
C=CC(=O)N1CCCC(Nc2nc(Nc3cnn(C4CCS(=O)(=O)CC4)c3)c3c(c2F)CNC3=O)C1 (stereo not shown) [Compound G-13]	8.52	5.80	7.35	
C=CC(=O)N1CCC2CN(c3nc(Nc4cnn(C)c4)c4c(c3F)CNC4=O)CC21 (stereo not shown) [Compound G-87]	9.00		8.40	
C=CC(=O)N1CCCC(Nc2nc(Nc3cnn(C4CN(C)CC4F)c3)c3c(c2F)CNC3=O)C1 (stereo not shown) [Compound G-15]	8.52	5.92	8.30	
C=CC(=O)N1CC(Nc2nc(Nc3ccc(N4CCOCC4)c(F)c3)c3c(c2F)CNC3=O)CCC1C (stereo not shown) [Compound G-41]	8.70		8.52	
C=CC(=O)N1CCCC(Nc2nc(Nc3ccc(N4CCN(C5COC5)CC4C)cc3)c3c(c2F)CNC3=O)C1 (stereo not shown) [Compound G-34]	8.30	5.50		Area under curve AUC [2]: 1869 ng·h/mL; Maximum blood concentration Cmax [2]: 1990.0 ng/mL; Oral relative bioavailability F (%) [2]: 28.6%; Tmax [2]: 4.8 min; half-time T1/2 [2]: 86.4 min
C=CC(=O)N1CCCCC(Nc2nc(Nc3ccc(OCCOC)cc3)c3c(c2F)CNC3=O)C1 (stereo not shown) [Compound G-3, 6-(1-acryloylazacycloheptane-3-ylamino)-7-fluoro-4-(4-(2-methoxyethoxy)phenylamino)-1H-pyrrolo[3,4-c]pyridine-3 (2H)-one]	8.70	5.64	7.96	
C=CC(=O)N1CCCC(Nc2nc(-c3cnn(C(F)F)c3)c3c(c2F)CNC3=O)C1 (stereo not shown) [Compound G-48]			7.21	
C=CC(=O)N1CCCC(Nc2nc(Nc3ccc(N4CCOCC4)c(F)c3)c3c(c2F)CNC3=O)C1 (stereo not shown) [Compound G-33]	8.30	5.14		Area under curve AUC [2]: 1193 ng·h/mL; Maximum blood concentration Cmax [2]: 964.0 ng/mL; Oral relative bioavailability F (%) [2]: 15.6%; Tmax [2]: 4.8 min; half-time T1/2 [2]: 71.4 min
C=CC(=O)NC1CN(c2nc(Nc3cnn(C)c3)c3c(c2F)CNC3=O)C1 [Compound G-85, N-(1-(7-fluoro-4-(1-methyl-1H-pyrazol-4-ylamino)-3-oxo-2,3-dihydro-1H-pyrrolo[3,4-c]pyridin-6-yl)azetidin-3-yl)acrylamide]	7.49	5.95	7.37	
C=CC(=O)N(C)C1CCN(c2nc(Nc3cnn(C)c3)c3c(c2F)CNC3=O)C1 (stereo not shown) [Compound G-88, N-(1-(7-fluoro-4-(1-methyl-1H-pyrazol-4-ylamino)-3-oxo-2,3-dihydro-1H-pyrrolo[3,4-c]pyridin-6-yl)pyrrolidine-3-yl)-N-methyl acrylamide]	7.77	5.98	7.25	
C=CC(=O)N1CCCC(Nc2nc(Nc3ccc(N4CCOCC4C)cc3)c3c(c2F)CNC3=O)C1 (stereo not shown) [Compound G-32]	8.30	5.27		Area under curve AUC [2]: 1463 ng·h/mL; Maximum blood concentration Cmax [2]: 837.7 ng/mL; Oral relative bioavailability F (%) [2]: 14.7%; Tmax [2]: 30 min; half-time T1/2 [2]: 72.6 min
C=CC(=O)N1CCCC(Nc2nc3c(c(Nc4cnn(C)c4)n2)C(=O)NC3)C1 (stereo not shown) [Compound G-59, 2-(1-acryloylpiperidin-3-ylamino)-4-(1-methyl-1H-pyrazole-4-ylamino)-6,7-dihydrogen-5H-pyrrolo[3,4-d]pyrimidine-5-one]	7.89	5.99	7.80	
C=CC(=O)N1CC2CN(c3nc(Nc4cnn(C)c4)c4c(c3F)CNC4=O)CC2C1 (stereo not shown) [Compound G-76]	9.10	5.86	8.70	
C=CC(=O)N1CCC[C@H](Nc2nc(Nc3ccc(N4CCOCC4)cc3)c3c(c2F)CNC3=O)C1 [Compound G-114]	7.47	5.38		AUC ([2]; male, ICR): 1070 ng·h/mL; Cmax ([2]; male, ICR): 1240 ng/mL; Tmax ([2]; male, ICR): 4.8 min; bioavailability ([2]; male, ICR): 13.7%; half-life ([2]; male, ICR): 148 min
C=CC(=O)N1CCC(Nc2nc(Nc3ccc(OCCOC)cc3)c3c(c2F)CNC3=O)CC1 [Compound G-6]			7.54	
C=CC(=O)N1CCC[C@@H](Nc2nc(-c3cnn(C)c3)c3c(c2F)CNC3=O)C1 [Compound G-111]	7.16	< 5.00		AUC ([2]; male, ICR): 2180 ng·h/mL; Cmax ([2]; male, ICR): 3490 ng/mL; Tmax ([2]; male, ICR): 4.8 min; bioavailability ([2]; male, ICR): 79.7%; half-life ([2]; male, ICR): 356 min
C=CC(=O)N1CCCC(Nc2nc(Nc3ccc(N4CCOCC4C)c(F)c3)c3c(c2F)CNC3=O)C1 (stereo not shown) [Compound G-42]	8.30	5.28		Area under curve AUC [2]: 1266 ng·h/mL; Maximum blood concentration Cmax [2]: 945.0 ng/mL; Oral relative bioavailability F (%) [2]: 12.3%; Tmax [2]: 15 min; half-time T1/2 [2]: 104 min
